Data on 18 compounds can be found in US20180338980A1, “AROMATIC SULFONAMIDE DERIVATIVES” (BAYER PHARMA AKTIENGESELLSCHAFT, priority 2015, published 2018).

pIC50: −log10 of the molar value.

Test [1] addresses T1, P2X4 (Homo sapiens, UniProt Q99571).
T1 sequence (Q99571 1-388): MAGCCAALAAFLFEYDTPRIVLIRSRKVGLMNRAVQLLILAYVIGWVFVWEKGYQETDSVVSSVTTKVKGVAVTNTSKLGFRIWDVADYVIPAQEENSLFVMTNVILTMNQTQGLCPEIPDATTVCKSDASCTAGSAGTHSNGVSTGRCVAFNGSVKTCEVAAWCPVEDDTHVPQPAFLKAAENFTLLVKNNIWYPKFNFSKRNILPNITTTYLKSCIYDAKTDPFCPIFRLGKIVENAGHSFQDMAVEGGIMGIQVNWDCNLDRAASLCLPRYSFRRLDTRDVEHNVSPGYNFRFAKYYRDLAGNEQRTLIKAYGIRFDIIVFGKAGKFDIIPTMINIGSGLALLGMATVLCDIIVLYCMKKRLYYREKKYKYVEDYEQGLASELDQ
In words: Assay B: human P2X4 receptor cell line, mitochondrial photina luminescence (agonist Bz-ATP at EC50). The class given is cell-based. Particulars: for Emax: read-out: human P2X4 Assay B avg Efficacy. Details: host or cells: HEK 293 (recombinant, constitutively expressing; with mitochondrial photina in Assay B). The method, boiled down:
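Bz-ATP at its EC50 activates human P2X4 stably expressed in a cell line that also carries the calcium-sensitive photoprotein mitochondrial photina (coelenterazine cofactor). Light emitted on calcium influx is measured straight away in a luminometer. Reduced luminescence indicates antagonism.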

The target of test [2] is T1, P2X4. Briefly: Assay A: human P2X4 receptor cell line, FLIPR calcium assay (Fluo-8, agonist Bz-ATP at EC80). The class given is cell-based. Details: host or cells: HEK 293 (recombinant, constitutively expressing; with mitochondrial photina in Assay B). Particulars: for pIC50: Bz-ATP at EC80, average values; for Emax: read-out: human P2X4 Assay A avg Efficacy. The method, boiled down: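 Antagonism read as inhibition of the calcium response to EC80 Bz-ATP, by peak-over-basal Fluo-8 fluorescence over 120 s, normalized to DMSO wells. Human P2X4-HEK cells, dye-loaded 30 min in probenecid-containing HBSS/HEPES pH 7.4, received compound 30 min beforehand at room temperature, 0.5% DMSO final. Triplicates fitted for IC50, maximal inhibition and Hill slope.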

Where [3] appears, read: HEK human P2X4 cell line, photina luminescence, agonist Bz-ATP at EC50, average.
Setting [4] is: HEK human P2X4 cells, Fluo-8 FLIPR.
Where [5] appears, read: percentage of maximal inhibition, HEK human P2X4 cells, Fluo-8 FLIPR.

As to `C=C(C)c1ccccc1Oc1ccc(NC(=O)Cc2ccccc2Cl)cc1S(N)(=O)=O` [Example 178, 2-(2-Chlorophenyl)-N-{4-[2-(prop-1-en-2-yl)phenoxy]-3-sulfamoylphenyl}acetamide], the pIC50 – broadly, −log10 of the IC50, conventionally taken in molar units – at P2X4 [1] (setting [3]) is 6.31; on P2X4 [2] (setting [4]), 6.41. For the same compound, the Emax at P2X4 [1] (setting [3]) stood at 56%; on P2X4 [2] (setting [5]), 76%.
In the case of `Cc1ccc(CC(=O)Nc2ccc(Oc3cccc(Cl)c3)c(S(N)(=O)=O)c2)cc1` [Example 179, N-[4-(3-Chlorophenoxy)-3-sulfamoylphenyl]-2-(4-methylphenyl)acetamide], the Emax worked out at 65% at P2X4 [1] (setting [3]) and 69% on P2X4 [2] (setting [5]).
On the same counts, the results for `NS(=O)(=O)c1cc(NC(=O)Cc2ccc(Cl)cc2)ccc1Oc1cccc(Cl)c1` [Example 180, N-[4-(3-Chlorophenoxy)-3-sulfamoylphenyl]-2-(4-chlorophenyl)acetamide] are 63% and 76%.
Turning to `COc1cccc(CC(=O)Nc2ccc(Oc3cccc(Cl)c3)c(S(N)(=O)=O)c2)c1` [Example 191, N-[4-(3-Chlorophenoxy)-3-sulfamoylphenyl]-2-(3-methoxyphenyl)acetamide], the results for the pIC50 on P2X4 [1] (setting [3]) and on P2X4 [2] (setting [4]) were 6.83 and 7.30, respectively. In addition, the Emax on P2X4 [1] (setting [3]) is 72%; at P2X4 [2] (setting [5]) it was 85%.
Turning to `COc1ccccc1CC(=O)Nc1ccc(Oc2cccc(Cl)c2)c(S(N)(=O)=O)c1` [Example 192, N-[4-(3-Chlorophenoxy)-3-sulfamoylphenyl]-2-(2-methoxyphenyl)acetamide], the results for the Emax on P2X4 [1] (setting [3]) and at P2X4 [2] (setting [5]) were 68% and 86%, respectively.
On to `CC(C(=O)Nc1ccc(Oc2cccc(Cl)c2)c(S(N)(=O)=O)c1)c1ccccc1Cl` (stereo not drawn) [Example 196, N-[4-(3-Chlorophenoxy)-3-sulfamoylphenyl]-2-(2-chlorophenyl)propanamide], for which the Emax on P2X4 [1] is 71%; on P2X4 [2], 82%.
Regarding `NS(=O)(=O)c1cc(NC(=O)Cc2ccccc2Cl)ccc1OC1CCCCC1` [Example 200, 2-(2-Chlorophenyl)-N-[4-(cyclohexyloxy)-3-sulfamoylphenyl]acetamide], the Emax was 83% on P2X4 [1] (setting [3]) and 86% on P2X4 [2] (setting [5]).
Turning to `COCCN(C)C(=O)c1cccc(CC(=O)Nc2ccc(Oc3cccc(Cl)c3)c(S(N)(=O)=O)c2)c1` [Example 208, 3-(2-{[4-(3-Chlorophenoxy)-3-sulfamoylphenyl]amino}-2-oxoethyl)-N-(2-methoxyethyl)-N-methylbenzamide], the pIC50 is 6.26 on P2X4 [1] (setting [3]) and 7.42 at P2X4 [2] (setting [4]). For the same compound, the figures for the Emax at P2X4 [1] (setting [3]) and on P2X4 [2] (setting [5]) were 67% and 87%, respectively.
On to `N#Cc1ccc(CC(=O)Nc2ccc(Oc3cccc(Cl)c3)c(S(N)(=O)=O)c2)cc1` [Example 224, N-[4-(3-Chlorophenoxy)-3-sulfamoylphenyl]-2-(4-cyanophenyl)acetamide], for which the negative-log IC50 (pIC50) on P2X4 [1] (setting [3]) was 6.21; on P2X4 [2] (setting [4]), 6.46. Further, the Emax at P2X4 [1] (setting [3]) was determined as 61%; at P2X4 [2] (setting [5]), 78%.
On the same counts, the results for `NS(=O)(=O)c1cc(NC(=O)Cc2ccc(F)cc2Cl)ccc1Oc1ccc(Cl)cc1` [Example 231, 2-(2-Chloro-4-fluorophenyl)-N-[4-(4-chlorophenoxy)-3-sulfamoylphenyl]acetamide] are 6.92, 6.28, 46% and 62%.
As for `Cn1cc(Oc2ccc(NC(=O)Cc3ccccc3Cl)cc2S(N)(=O)=O)cn1` [Example 233, 2-(2-Chlorophenyl)-N-{4-[(1-methyl-1H-pyrazol-4-yl)oxy]-3-sulfamoylphenyl}acetamide], the Emax on P2X4 [1] (setting [3]) came to 79%; on P2X4 [2] (setting [5]), 70%.
With `NS(=O)(=O)c1cc(NC(=O)Cc2ccc(C(F)F)cc2)ccc1Oc1ccc(Cl)cc1` [Example 234, N-[4-(4-Chlorophenoxy)-3-sulfamoylphenyl]-2-[4-(difluoromethyl)phenyl]acetamide], the pIC50 at P2X4 [1] (setting [3]) was 6.16; on P2X4 [2] (setting [4]) it was 6.25. For the same compound, the Emax on P2X4 [1] (setting [3]) is 43%; on P2X4 [2] (setting [5]) it was 73%.
On the same counts, the results for `COc1ccc(CC(=O)Nc2ccc(Oc3ccc(Cl)cc3)c(S(N)(=O)=O)c2)c(Cl)c1` [Example 235, 2-(2-Chloro-4-methoxyphenyl)-N-[4-(4-chlorophenoxy)-3-sulfamoylphenyl]acetamide] are 6.10, 6.33, 69% and 79%.
With `CC(C)(O)c1ccc(Oc2ccc(NC(=O)Cc3ccccc3Cl)cc2S(N)(=O)=O)cc1` [Example 264, 2-(2-Chlorophenyl)-N-{4-[4-(2-hydroxypropan-2-yl)phenoxy]-3-sulfamoylphenyl}acetamide], the figures for the Emax at P2X4 [1] (setting [3]) and at P2X4 [2] (setting [5]) were 80% and 62%, respectively.
On to `CC1(C)CC(Oc2ccc(NC(=O)Cc3ccccc3Cl)cc2S(N)(=O)=O)CC(C)(C)O1` [Example 269, 2-(2-Chlorophenyl)-N-{3-sulfamoyl-4-[(2,2,6,6-tetramethyltetrahydro-2H-pyran-4-yl)oxy]phenyl}acetamide], for which the pIC50 at P2X4 [1] (setting [3]) is less than 4.30; at P2X4 [2] (setting [4]), less than 4.60. Besides, the Emax was 14% on P2X4 [1] (setting [3]) and 37% on P2X4 [2] (setting [5]).
For `CC(C)(O)c1cccc(Oc2ccc(NC(=O)Cc3ccccc3Cl)cc2S(N)(=O)=O)c1` [Example 274, 2-(2-Chlorophenyl)-N-{4-[3-(2-hydroxypropan-2-yl)phenoxy]-3-sulfamoylphenyl}acetamide], the results for the Emax on P2X4 [1] (setting [3]) and on P2X4 [2] (setting [5]) were 64% and 104%, respectively.
As to `NS(=O)(=O)c1cc(NC(=O)Cc2c(Cl)ccc3c2CCO3)ccc1Oc1cccc(Cl)c1` [Example 278, 2-(5-Chloro-2,3-dihydro-1-benzofuran-4-yl)-N-[4-(3-chlorophenoxy)-3-sulfamoylphenyl]acetamide], the pIC50 at P2X4 [1] (setting [3]) was 6.74; at P2X4 [2] (setting [4]) it was 6.86. For the same compound, the Emax on P2X4 [1] (setting [3]) was found to be 65%; at P2X4 [2] (setting [5]), 82%.
Take `NS(=O)(=O)c1cc(NC(=O)Cc2ccccc2F)ccc1OCC1CCOCC1` [Example 279, 2-(2-Fluorophenyl)-N-[3-sulfamoyl-4-(tetrahydro-2H-pyran-4-ylmethoxy)phenyl]acetamide]: the Emax is 85% on P2X4 [1] and 61% at P2X4 [2].
